# Assay results: patent EP4567044A1, “HIGH-STABILITY RECOMBINANT COLLAGEN, AND CONSTRUCTION METHOD THEREFOR AND USE THEREOF” (Jiangsu Trautec Medical Technology Co., Ltd., priority 2022, dated 2024)
# System: mammalian L-929 cells
# Assay type: cell-based
# Experimental: CCIC Huatongwei International Inspection (Suzhou) Co., Ltd. was entrusted to test the potential cytotoxic effect of a recombinant collagen M4 using mammalian L-929 cells cultured in vitro in accordance with method requirements of GB/T16886.5-2017. A test sample and a control sample were placed in a MEM medium including a 10% fetal bovine serum, and extracted in a 37°C incubator for 24 h. After the end of extraction, a cell medium is removed from ta 96-well plate (10^4 cells/well) cultured for 24 h, replaced with the corresponding extraction liquid, and cultured in a cell culture incubator (37°C, 5% CO2, humidity >90% ) for 24 h. After the end of culture, the morphology and lysis of a cell was observed under a microscope. The cytotoxicity value of a test sample was measured using a MTT method. […] After incubation for 24 h, the cell morphology of the extraction liquid with a 100% concentration of the test sample was basically intact, and a cell viability value was 83.6%. The recombinant collagen M4 had no potential cytotoxic effect under the cytotoxicity test conditions of a MTT method.
structure (smiles),measurement,value
CCN(CC)C(=S)[S-].CCN(CC)C(=S)[S-].[Zn+2] [ZDEC],cytotoxic effect,severe cytotoxic reaction
